Like-named read-outs stand apart in the source and are kept apart here. Marks after values point to notes of the source that are not given here.
Tests used:
HCT-15 = conditions: HCT-15, Colon, NCI database, cited from earlier work; for CC50: read-out: LC50 (the source's name)
U251 = conditions: U251, CNS, NCI database, cited from earlier work; for CC50: read-out: LC50 (the source's name)
SK-MEL-5 = conditions: SK-MEL-5, Melanoma, NCI database, cited from earlier work; for CC50: read-out: LC50 (the source's name)
SN12C = conditions: Renal, NCI database, cited from earlier work; for CC50: read-out: LC50 (the source's name)
M14 = conditions: M14, Melanoma, NCI database, cited from earlier work; for CC50: read-out: LC50 (the source's name)
NCI-H23 = conditions: NCI-H23, Non-Small Cell Lung, NCI database, cited from earlier work; for CC50: read-out: LC50 (the source's name)
NCI/ADR-RES = conditions: Breast, NCI database, cited from earlier work; for CC50: read-out: LC50 (the source's name)
SW-620 = conditions: SW-620, Colon, NCI database, cited from earlier work; for CC50: read-out: LC50 (the source's name)
SK-MEL-28 = conditions: SK-MEL-28, Melanoma, NCI database, cited from earlier work; for CC50: read-out: LC50 (the source's name)
ACHN [1] = conditions: Renal, NCI database, cited from earlier work; for CC50: read-out: LC50 (the source's name)
[2] = test system: Heterozygous nude CD-1 male mice; test: Hematology analyses in treated mice; conditions: i.p.; for change in peripheral white blood cell counts: trans-AVTG: only 21.25 μmol/kg two cycles, 6-TG: 8.5 or 21.25 μmol/kg one cycle or 21.25 μmol/kg two cycles
Procedure: Heterozygous nude CD-1 male mice were treated (i.p.) with multiple doses consisting of either one dose daily for three consecutive days (cis-AVTP or trans-AVTG, 21.25 μmol/kg, 6-TG, 8.5 or 21.25 μmol/kg, or vehicle; one cycle), or one dose daily for three consecutive days, repeated again five days later (cis-AVTP, trans-AVTG or 6-TG, 8.5 or 21.25 μmol/kg, or vehicle; two cycles).
The mice were sacrificed 24 h after the last treatment. Urine was collected for 24 h before initiation of treatment and every 24 h thereafter until the mice were sacrificed. Blood was collected by cardiac puncture and blood cells counted. Sections of liver, kidney, intestines, stomach and sternum were stained with hematoxylin and eosin and subjected to pathological analysis. Bone marrow smears were prepared for assessment of bone marrow cellularity. Liver function was evaluated by measuring alanine aminotransferase-(ALT) and aspartate aminotransferase (AST) activities in plasma. Kidney function was evaluated by measuring blood urea nitrogen in plasma and γ-glutamyltransferase activity and glucose levels in urine.

IGR-OV1 = conditions: for CC50: read-out: LC50
HOP-62 = conditions: for CC50: read-out: LC50
NCI-H460 = conditions: for CC50: read-out: LC50
SNB-75 = conditions: for CC50: read-out: LC50
SF-268 = conditions: for CC50: read-out: LC50
OVCAR-3 = conditions: for CC50: read-out: LC50
HT29 = conditions: for CC50: read-out: LC50
A549/ATCC = conditions: for CC50: read-out: LC50
ACHN [3] = test system: ACHN
[4] = HOP-62, Non-Small Cell Lung, 48 h
[5] = NCI-H460, Non-Small Cell Lung, 48 h
[6] = Homo sapiens, 48 h, read-out: LC50
[7] = A549/ATCC, Non-Small Cell Lung, 48 h

Structure (SMILES): Sc1ncnc2nc[nH]c12 [6-MP, 6-mercaptopurine]
- GI50 (HCT-15): 4.38 µM
- TGI (HCT-15): >100 µM
- CC50 (HCT-15): > 100 µM
- GI50 (U251): 11.8 µM
- TGI (U251): >100 µM
- CC50 (U251): > 100 µM
- GI50 (SK-MEL-5): 8.59 µM
- TGI (SK-MEL-5): >100 µM
- CC50 (SK-MEL-5): > 100 µM
- CC50 (SN12C): > 100 µM
- GI50 (SN12C): 22.6 µM
- TGI (SN12C): >100 µM
- GI50 (M14): 0.67 µM
- TGI (M14): >100 µM
- CC50 (M14): > 100 µM
- GI50 (NCI-H23): 3.74 µM
- TGI (NCI-H23): >100 µM
- CC50 (NCI-H23): > 100 µM
- CC50 (NCI/ADR-RES): > 100 µM
- GI50 (NCI/ADR-RES): 3.18 µM
- TGI (NCI/ADR-RES): >100 µM
- GI50 (SW-620): 6.82 µM
- TGI (SW-620): >100 µM
- CC50 (SW-620): > 100 µM
- GI50 (SK-MEL-28): > 100 µM
- TGI (SK-MEL-28): >100 µM
- CC50 (SK-MEL-28): > 100 µM
- CC50 (ACHN [1]): > 100 µM
- GI50 (ACHN [1]): 6.3 µM
- TGI (ACHN [1]): >100 µM

Structure (SMILES): Nc1nc2nc[nH]c2c(=S)[nH]1 [6-TG, 6-thioguanine]
- PLT ([2]; 8.5 μmol/kg, one cycle): 1172 ± 161 × 10^3 cells/μl
- RBC ([2]; 8.5 μmol/kg, one cycle): 8.3 ± 0.4 × 10^6 cells/μl
- WBC ([2]; 8.5 μmol/kg, one cycle): 4.8 ± 1.2 × 10^3 cells/μl
- PLT ([2]; 8.5 μmol/kg, two cycles): 906 ± 140 × 10^3 cells/μl
- RBC ([2]; 8.5 μmol/kg, two cycles): 8.3 ± 0.2 × 10^6 cells/μl
- WBC ([2]; 8.5 μmol/kg, two cycles): 5.3 ± 1.6 × 10^3 cells/μl
- PLT ([2]; 21.25 μmol/kg, one cycle): 752 ± 416^b × 10^3 cells/μl
- RBC ([2]; 21.25 μmol/kg, one cycle): 8.4 ± 0.6^a × 10^6 cells/μl
- WBC ([2]; 21.25 μmol/kg, one cycle): 3.8 ± 1.1^b,* × 10^3 cells/μl
- PLT ([2]; 21.25 μmol/kg, two cycles): 1351 ± 126 × 10^3 cells/μl
- RBC ([2]; 21.25 μmol/kg, two cycles): 8.0 ± 0.3 × 10^6 cells/μl
- WBC ([2]; 21.25 μmol/kg, two cycles): 3.6 ± 0.1 × 10^3 cells/μl
- change in peripheral white blood cell counts [2]: reduced white blood cell counts
- GI50 (HCT-15): 1.07 µM
- TGI (HCT-15): 50.9 µM
- CC50 (HCT-15): > 100 µM
- GI50 (U251): 4.89 µM
- TGI (U251): >100 µM
- CC50 (U251): > 100 µM
- GI50 (SK-MEL-5): 3.53 µM
- TGI (SK-MEL-5): 16.4 µM
- CC50 (SK-MEL-5): 88.1 µM
- CC50 (SN12C): > 100 µM
- GI50 (SN12C): 1.25 µM
- TGI (SN12C): >100 µM
- GI50 (M14): 0.58 µM
- TGI (M14): 14.3 µM
- CC50 (M14): > 100 µM
- GI50 (NCI-H23): 1.06 µM
- TGI (NCI-H23): 22.9 µM
- CC50 (NCI-H23): > 100 µM
- CC50 (NCI/ADR-RES): > 100 µM
- GI50 (NCI/ADR-RES): 0.59 µM
- TGI (NCI/ADR-RES): 35.6 µM
- GI50 (SW-620): 1.52 µM
- TGI (SW-620): >100 µM
- CC50 (SW-620): > 100 µM
- GI50 (SK-MEL-28): 8.91 µM
- TGI (SK-MEL-28): >100 µM
- CC50 (SK-MEL-28): > 100 µM
- CC50 (ACHN [1]): > 100 µM
- GI50 (ACHN [1]): 1.93 µM
- TGI (ACHN [1]): >100 µM

Structure (SMILES): CC(=O)C=CSc1ncnc2nc[nH]c12 [cis-AVTP, 6-(2-acetylvinylthio) purine]
- GI50 (IGR-OV1; Homo sapiens, IGROV-1, 48 h): 2 µM
- CC50 (IGR-OV1; Homo sapiens, IGROV-1, 48 h): 29.8 µM
- TGI (IGR-OV1; IGR-OV1, Ovarian, 48 h): 7.72 µM
- TGI (HOP-62; [4]): 21.2 µM
- GI50 (HOP-62; Homo sapiens, HOP-62, 48 h): 0.4 µM
- CC50 (HOP-62; Homo sapiens, HOP-62, 48 h): 88.9 µM
- GI50 (NCI-H460; Homo sapiens, NCI-H460, 48 h): 0.68 µM
- CC50 (NCI-H460; Homo sapiens, NCI-H460, 48 h): 38.6 µM
- TGI (NCI-H460; [5]): 8.71 µM
- PLT ([2]; 8.5 μmol/kg, two cycles): 1160 ± 349 × 10^3 cells/μl
- RBC ([2]; 8.5 μmol/kg, two cycles): 9.5 ± 0.3 × 10^6 cells/μl
- WBC ([2]; 8.5 μmol/kg, two cycles): 5.9 ± 2.3 × 10^3 cells/μl
- PLT ([2]; 21.25 μmol/kg, one cycle): 1644 ± 253^a × 10^3 cells/μl
- RBC ([2]; 21.25 μmol/kg, one cycle): 8.9 ± 0.6^a × 10^6 cells/μl
- WBC ([2]; 21.25 μmol/kg, one cycle): 8.0 ± 1.2^a × 10^3 cells/μl
- PLT ([2]; 21.25 μmol/kg, two cycles): 1257 ± 335 × 10^3 cells/μl
- RBC ([2]; 21.25 μmol/kg, two cycles): 9.0 ± 0.5 × 10^6 cells/μl
- WBC ([2]; 21.25 μmol/kg, two cycles): 8.4 ± 1.9 × 10^3 cells/μl
- change in peripheral white blood cell counts [2]: No change
- GI50 (SNB-75; Homo sapiens, SNB-75, 48 h): 4.19 µM
- CC50 (SNB-75; Homo sapiens, SNB-75, 48 h): 49.1 µM
- TGI (SNB-75; SNB-75, CNS, 48 h): 18.6 µM
- TGI (HL-60(TB); Leukemia, 48 h): 4.95 µM
- GI50 (SF-268; Homo sapiens, SF-268, 48 h): < 0.01 µM
- CC50 (SF-268; Homo sapiens, SF-268, 48 h): 27.7 µM
- TGI (SF-268; SF-268, CNS, 48 h): 0.24 µM
- GI50 (OVCAR-3; Homo sapiens, OVCAR-3, 48 h): 0.03 µM
- CC50 (OVCAR-3; Homo sapiens, OVCAR-3, 48 h): 8.67 µM
- TGI (OVCAR-3; OVCAR-3, Ovarian, 48 h): 0.47 µM
- GI50 (CCRF-CEM; Homo sapiens, 48 h): 0.2 µM
- CC50 (CCRF-CEM; [6]): > 100 µM
- TGI (CCRF-CEM; Leukemia, 48 h): 2.17 µM
- TGI (HT29; HT29, Colon, 48 h): 2.85 µM
- GI50 (HT29; Homo sapiens, HT-29, 48 h): 0.73 µM
- CC50 (HT29; Homo sapiens, HT-29, 48 h): 9.23 µM
- TGI (A549/ATCC; [7]): 24.3 µM
- GI50 (A549/ATCC; Homo sapiens, A549, 48 h): 6.94 µM
- CC50 (A549/ATCC; Homo sapiens, A549, 48 h): 69.5 µM
- GI50 (ACHN [3]; Homo sapiens, 48 h): 1.99 µM
- CC50 (ACHN [3]; [6]): 7.59 µM
- TGI (ACHN [3]; Renal, 48 h): 3.89 µM

Structure (SMILES): CC(=O)C=CSc1nc(N)nc2nc[nH]c12 [trans-AVTG, 6-(2-acetylvinylthio) guanine]
- GI50 (IGR-OV1; IGR-OV1, Ovarian, 48 h): 0.03 µM
- TGI (IGR-OV1; IGR-OV1, Ovarian, 48 h): 0.08 µM
- CC50 (IGR-OV1; IGR-OV1, Ovarian, 48 h): 7.86 µM
- GI50 (HOP-62; [4]): 1.62 µM
- TGI (HOP-62; [4]): >100 µM
- CC50 (HOP-62; [4]): > 100 µM
- GI50 (NCI-H460; [5]): 0.59 µM
- TGI (NCI-H460; [5]): 3.57 µM
- CC50 (NCI-H460; [5]): 49.4 µM
- GI50 (SNB-75; SNB-75, CNS, 48 h): 9.17 µM
- TGI (SNB-75; SNB-75, CNS, 48 h): >100 µM
- CC50 (SNB-75; SNB-75, CNS, 48 h): > 100 µM
- GI50 (HL-60(TB); Leukemia, 48 h): 3.77 µM
- TGI (HL-60(TB); Leukemia, 48 h): 16.6 µM
- CC50 (HL-60(TB); read-out: LC50, Leukemia, 48 h): > 100 µM
- GI50 (SF-268; SF-268, CNS, 48 h): < 0.01 µM
- TGI (SF-268; SF-268, CNS, 48 h): 0.43 µM
- CC50 (SF-268; SF-268, CNS, 48 h): 24.4 µM
- GI50 (OVCAR-3; OVCAR-3, Ovarian, 48 h): 0.24 µM
- TGI (OVCAR-3; OVCAR-3, Ovarian, 48 h): 0.63 µM
- CC50 (OVCAR-3; OVCAR-3, Ovarian, 48 h): 12.1 µM
- GI50 (CCRF-CEM; Leukemia, 48 h): 0.14 µM
- TGI (CCRF-CEM; Leukemia, 48 h): 1.83 µM
- CC50 (CCRF-CEM; read-out: LC50, Leukemia, 48 h): 54.8 µM
- GI50 (HT29; HT29, Colon, 48 h): 1.06 µM
- TGI (HT29; HT29, Colon, 48 h): 12.5 µM
- CC50 (HT29; HT29, Colon, 48 h): 60.4 µM
- GI50 (A549/ATCC; [7]): 5.75 µM
- TGI (A549/ATCC; [7]): 32.8 µM
- CC50 (A549/ATCC; [7]): > 100 µM
- GI50 (ACHN [3]; Renal, 48 h): 3.63 µM
- TGI (ACHN [3]; Renal, 48 h): 51.4 µM
- CC50 (ACHN [3]; read-out: LC50, Renal, 48 h): > 100 µM

Reference: patent US20040023994A1 (priority 2002, published 2004)
